Results as given in US7875270B2, “Treatment solution and method for preventing posterior capsular opacification by selectively inducing detachment and/or death of lens epithelial cells” (Abbott Medical Optics Inc., priority 2002, dated 2011).

What was measured:
[1] = test system: human LECs-CCCs freshly removed from cataract operation; assay: In situ treatment of LECs attached to capsulorhexis lens capsule (LECs-CCC); format: cell-based
Procedure: The in situ effects of a treatment solution comprising dihydrochlorothiazide (DHCT) (a cotransport interference agent from the group of the thiazide and related diuretics) and hyperosmotic NaCl on human LECs is examined. The treatment is tested on LECs that are still attached to a continuous curvilinear capsulorhexis lens capsule (LECs-CCC) which are freshly removed from a human cataract operation.
The LECs-CCCs are obtained from a cataract operation and immediately put in freshly prepared Eagle's Minimum Essential Medium (MEM) supplemented with 2 mM glutamine, 25 mmol/L Hepes (pH 7.4) without foetal cow serum (FCS) and is transferred to the laboratory for evaluation. Viable LECs are identified by staining the LECs-CCCs for five minutes with 0.2% Trypan Blue. The sheets containing more than 70% viable LECs are used to assess the efficacy of the treatment. […]
In the first step, a hyperosmotic solution of NaCl is prepared by making a stock solution of 2 M NaCl by adding 58.44 g NaCl (supplied by Sigma Chemical Co., U.S.) to 500 ml dH2O. The desired concentration of osmotic NaCl is prepared by diluting the 2M stock solution with dH2O. For example, to make a hyperosmotic solution of 170 mM NaCl, the 2M NaCl stock solution was diluted with dH2O at a ratio of […]. To make a hyperosmotic solution of 200 mM NaCl, the 2M NaCl stock solution is diluted with dH2O at a ratio of 1 to 9. Final osmolarities (mOsm/kg/H2O) are determined by a freezing point depression method using cryoscopic osmometry.
In the second step, DHCT stock solution is made by adding 25 mg DHCT to 1 ml dH2O. […]
The treatment is applied by exposing the LECs-CCCs for five minutes in a small petri dish containing the treatment solution. The treatment solution is removed after five minutes exposure by a syringe and then the fresh PBS is added in the petri dish to wash away the treatment solution. The LECs-CCCs are washed three times. The changes of the LECS are monitored under a microscope. Microscope photographs are taken at 0, 2 and 5 minutes and after wash.

[2] = test system: in vivo rabbit eyes; assay: In vivo prevention of PCO after cataract operation in rabbit eyes; conditions: DHCT and hyperosmotic NaCl
Procedure: The experimental group includes sixteen rabbit eyes and the control group includes four rabbit eyes. A sham cataract operation is performed on the control animals. The therapy is introduced to the others.
The pupil of each rabbit eye is preoperatively dilated with topical G Phenylephrine 10% (Alcon Labs., Inc., China) and G Cyclopentolate 1% (Bausch & Lomb Pharm., Inc., USA) three times in one hour. The rabbits are anesthetized with ketamine hydrochloride (5 mg kg-1) and xylazine hydrochloride (2 mg kg-1) and placed on an operating table. A topical anesthetic (Dieaine hydrochloride 1%) is used every five minutes on two occasions. A wire lid speculum is placed to hold the eyelids open.
A 3.2 mm scleral tunnel incision into the eye is formed at the temporal limbus. The anterior chamber is maintained with viscoelastic substances and a 4-5 mm diameter continuous curvilinear capsularhexis (CCC) is made on the anterior surface of the lens to open its bag. The treatment solution is first introduced in the LECs by hydrodissection. This ensures that the treatment fluid immediately reaches under the entire anterior capsule/LECs. This process allows for (i) separation of the lens cortex from the capsule and lens epithelium, making removal of the lens cortex easier at a later stage of the operation and (ii) the LECs to be exposed to the treatment for enough time (more than five minutes in total time).
The crystalline lens is then removed using phacoemulsification (Universal II, Alcon Labs., Inc., China). The remaining cortex is aspirated thoroughly and removed as completely as possible to expose the LECs. The lens capsular bag is then partially filed with viscoelastic material in order to maintain its shape. The viscoelastic material should not cover the LECs when the treatment solution is applied.
The treatment is spread over the inner surface of the anterior capsular bag (where the LECs attach). The anterior capsular is continuously filled by using a syringe with a bent needle. Care is taken not to over flow the bag. After the treatment solution covered the capsule bag, it is left for five minutes and then removed using a syringe.
In a few cases, IOLs are inserted. […] At the same time, the incision is enlarged to 6.0 mm and a posterior ocular lens (IOLs) (poly-methyl methacrylate, PMMA) with a 6.5 mm optic is prepared and placed into the capsular bag.
The wound is closed with or without suture.
At the completion of the surgical procedure, each rabbit eye receives subconjunctival dexamethasone (0.25 ml) and gentamicin (0.25 ml). Postoperatively, atropine sulphate 1% ophthalmic solution and neomycin sulphate-polymyxin sulphate-dexamethasone ophthalmic ointment are administered twice daily for three weeks.
The animals are evaluated for three weeks and ten weeks. […] All rabbits are evaluated by slitlamp and scored for ocular responses at 1 day and at 1, 2 and 3 weeks. (See FIG. 17, Table 1.) Three and ten weeks after surgery, the animals are anesthetized using a 2 ml intramuscular injection of 11:1 mixture of ketamine hydrochloride and xylazine 20 mg/ml and then killed with a 2 ml intravenous injection of sodium pentobarbital.
The eye globes are enucleated (some of them fixed in neutral buffered formalin 10% solution for 24 hours) and are bisected coronally just anterior to the equator. Gross examination is performed to assess. PCO development. Photographs are taken from behind (Miyake-Apple posterior photographic technique) by using a digital camera fitted to an operating microscope (Leica/Wild MZ-8, Vashaw Scientific, Inc.).
The extent and severity of PCO is scored (see FIG. 17, Table 1) according to methods reported in the literature. The lens capsules are then fixed and evaluated under a microscope (Olumpus, Optical Co. Ltd.) and photographed with a digital camera.

Question: For `NS(=O)(=O)c1cc2c(cc1Cl)NCNS2(=O)=O` [DHCT, dihydrochlorothiazide], which “LEC changes after exposure” value ([1]; 170 or 200 mM NaCl and 200 or 300 μm DHCT, pH ±7.8, five minutes) is on record?
Answer: shrink and gradually large gaps form between the cells. The shrinking cells then gradually round up and burst

Question: And the “living LECs after wash” value ([1]; 200 μm DHCT and hyperosmotic ≦200 mM NaCl)?
Answer: no living cells can be observed

Question: And the “Soemmering's ring” value [2]?
Answer: Most eyes did develop some degree of Soemmering's ring

Question: And the “intraocular inflammatory reaction and deposits” value ([2]; 3 and 10 weeks post-treatment)?
Answer: minimal intraocular inflammatory reaction and deposits on the lens capsule surface

Question: What about the “development of central PCO (CPCO) and peripheral PCO (PPCO)” value ([2]; three or ten weeks post-treatment) of the same compound?
Answer: No central PCO(CPCO) (the area within the pupillary area) and peripheral PCO (PPCO) (within 6-6.5 mm outside the pupillary area) is found to have developed

Question: What about the “lens epithelial cells in pupil area (phase contrast)” value ([2]; three weeks after surgery, no IOLs insertion) of the same compound?
Answer: no remaining lens epithelial cells

Question: How did the “living LECs after rinsing” value ([1]; 10 or 100 μm gramicidin and PBS) turn out when gramicidin was run?
Answer: no living cells remain

Question: And the “LEC changes after exposure” value ([1]; 10 or 100 μm gramicidin and PBS, five minutes)?
Answer: shrink and large gaps gradually form between the cells. The shrinking cells then gradually round up and burst
